According to ChEMBL document CHEMBL4699634, “Series of Novel and Highly Potent Cyclic Peptide PCSK9 Inhibitors Derived from an mRNA Display Screen and Optimized via Structure-Based Design” (J Med Chem, 2020):
Numbered stars: 1 amine (or outer) side, 2 acyl side, 3 side chain; on linkers, the order of the positions; unused ones are H or OH. Bridge positions count the residues as written; N and C are the ends. Square brackets hold non-standard residues; d marks the D form. Peptide text beside a SMILES is read from it. ξ: configuration not given here. Trp(5-F) = N[C@@H](Cc1c[nH]c2ccc(F)cc12)C(=O)O; X4 = CC(N[*:1])(C(=O)[*:2])c1cccc2ccccc12; X1 = O=C(CCSCc1cccc(CSCCN[*:1])c1)[*:2]; mXylylene = c1cc(C[*:1])cc(C[*:2])c1; NMeY = CN[C@@H](Cc1ccc(O)cc1)C(=O)O; NMeH = CN[C@@H](Cc1c[nH]cn1)C(=O)O; NMeD = CN[C@@H](CC(=O)O)C(=O)O; NMeK = CN[C@@H](CCCCN)C(=O)O; ξhPhe = NC(CCc1ccccc1)C(=O)O; αMeP = C[C@@]1(C(=O)O)CCCN1; NMeC = CN[C@@H](CS)C(=O)O; Pip = O=C(O)[C@@H]1CCCCN1; Aze = O=C(O)[C@@H]1CCN1; Mpa = O=C(O)CCS; Sar = CNCC(=O)O

Key:
[1] = target: Proprotein convertase subtilisin/kexin type 9 (Homo sapiens, UniProt Q8NBP7); test: Inhibition of AlexaFluor647-tagged cyclic peptide binding to avi-tagged-biotinylated human PCSK9 measured after 2 hrs by Lance Streptavidin Europium based FRET assay
[2] = target: PCSK9/LDLR (Homo sapiens, UniProt Q8NBP7); test: Inhibition of avi-tagged-biotinylated human PCSK9 interaction with His-tagged human LDLR EGFa domain by LANCE Ulight Streptavidin based TR-FRET assay; format: protein assay
PCSK9/LDLR, sequence (Q8NBP7 31-152 limits assumed): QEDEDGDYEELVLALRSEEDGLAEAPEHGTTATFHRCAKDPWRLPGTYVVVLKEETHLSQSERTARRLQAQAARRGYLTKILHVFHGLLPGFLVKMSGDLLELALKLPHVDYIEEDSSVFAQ
PCSK9/LDLR, sequence (Q8NBP7 153-692 limits assumed): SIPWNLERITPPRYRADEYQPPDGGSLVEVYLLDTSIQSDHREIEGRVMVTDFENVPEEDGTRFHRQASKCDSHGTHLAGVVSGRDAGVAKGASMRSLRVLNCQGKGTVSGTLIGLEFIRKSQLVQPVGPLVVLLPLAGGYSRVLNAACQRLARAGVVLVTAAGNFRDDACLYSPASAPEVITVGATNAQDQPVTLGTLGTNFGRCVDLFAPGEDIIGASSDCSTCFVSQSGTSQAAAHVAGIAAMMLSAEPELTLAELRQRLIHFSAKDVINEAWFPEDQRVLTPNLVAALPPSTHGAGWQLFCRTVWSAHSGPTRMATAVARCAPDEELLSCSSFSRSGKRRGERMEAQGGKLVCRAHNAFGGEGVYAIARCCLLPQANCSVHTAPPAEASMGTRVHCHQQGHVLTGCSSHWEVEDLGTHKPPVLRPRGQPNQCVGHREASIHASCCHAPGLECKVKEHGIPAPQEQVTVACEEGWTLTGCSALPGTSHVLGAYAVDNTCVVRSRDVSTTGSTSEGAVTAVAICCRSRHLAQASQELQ
PCSK9/LDLR, sequence (P01130 22-860 partner limits assumed): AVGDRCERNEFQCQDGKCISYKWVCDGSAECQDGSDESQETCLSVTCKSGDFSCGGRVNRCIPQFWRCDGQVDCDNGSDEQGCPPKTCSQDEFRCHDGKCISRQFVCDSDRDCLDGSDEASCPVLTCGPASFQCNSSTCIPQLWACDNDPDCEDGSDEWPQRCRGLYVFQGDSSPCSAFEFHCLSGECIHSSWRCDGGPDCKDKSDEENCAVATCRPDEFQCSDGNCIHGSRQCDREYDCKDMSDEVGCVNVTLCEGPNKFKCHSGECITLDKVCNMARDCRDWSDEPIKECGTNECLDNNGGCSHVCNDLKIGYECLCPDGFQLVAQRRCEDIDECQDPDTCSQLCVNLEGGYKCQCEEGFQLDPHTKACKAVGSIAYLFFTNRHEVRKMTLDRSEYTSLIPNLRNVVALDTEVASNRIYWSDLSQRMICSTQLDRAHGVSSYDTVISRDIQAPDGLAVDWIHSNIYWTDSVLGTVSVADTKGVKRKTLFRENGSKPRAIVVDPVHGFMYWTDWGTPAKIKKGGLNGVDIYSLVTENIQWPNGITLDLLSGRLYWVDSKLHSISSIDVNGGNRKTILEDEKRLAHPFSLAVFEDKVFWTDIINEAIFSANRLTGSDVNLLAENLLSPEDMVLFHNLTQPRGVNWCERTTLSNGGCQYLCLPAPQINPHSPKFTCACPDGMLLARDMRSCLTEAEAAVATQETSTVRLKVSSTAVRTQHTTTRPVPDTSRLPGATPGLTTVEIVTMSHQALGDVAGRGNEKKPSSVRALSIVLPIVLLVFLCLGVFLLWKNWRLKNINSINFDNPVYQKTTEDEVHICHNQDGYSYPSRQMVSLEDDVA

Proprotein convertase subtilisin/kexin type 9, sequence (Q8NBP7 31-152 limits assumed): as the sequence (Q8NBP7 31-152 limits assumed) above
Proprotein convertase subtilisin/kexin type 9, sequence (Q8NBP7 153-692 limits assumed): as the sequence (Q8NBP7 153-692 limits assumed) above

Work on COc1ccc(C[C@@H]2NC(=O)[C@H](Cc3cnc[nH]3)NC(=O)[C@H](CC(=O)O)NC(=O)[C@H](Cc3c[nH]c4ccc(F)cc34)NC(=O)[C@H](Cc3c[nH]c4ccc(F)cc34)NC(=O)[C@@H](C)NC(=O)[C@H](CCCCN)NC(=O)CCSCc3cccc(c3)CSCCNC(=O)[C@]3(C)CCCN3C2=O)cc1 yielded a Ki [1] of 3.9 nM.
Work on C[C@@]12CCCN1C(=O)[C@H](Cc1ccc(O)cc1)NC(=O)[C@H](Cc1cnc[nH]1)NC(=O)[C@H](CC(=O)O)NC(=O)[C@H](Cc1c[nH]c3ccc(F)cc13)NC(=O)[C@H](Cc1c[nH]c3ccc(F)cc13)NC(=O)[C@@H](C1CCCC1)NC(=O)[C@H](CCCCN)NC(=O)CCSCc1cccc(c1)CSCCNC2=O yielded a Ki [1] of 23.1 nM.
CC(C)(C)[C@H]1NC(=O)[C@H](CCCCN)NC(=O)CCSCc2cccc(c2)CSCCNC(=O)[C@]2(C)CCCN2C(=O)[C@H](Cc2ccc(O)cc2)NC(=O)[C@H](Cc2cnc[nH]2)NC(=O)[C@H](CC(=O)O)NC(=O)[C@H](Cc2c[nH]c3ccc(F)cc23)NC(=O)[C@H](Cc2c[nH]c3ccc(F)cc23)NC1=O showed a Ki [1] of 4.2 nM.
For C[C@@H]1NC(=O)[C@H](Cc2ccc(O)cc2)NC(=O)[C@H](Cc2cnc[nH]2)NC(=O)[C@H](CC(=O)O)NC(=O)[C@H](Cc2c[nH]c3ccc(F)cc23)NC(=O)[C@H](Cc2c[nH]c3ccc(F)cc23)NC(=O)CNC(=O)[C@H](CCCCN)NC(=O)CCSCc2cccc(c2)CSC[C@@H](C(N)=O)NC1=O ([Mpa]KG[Trp(5-F)][Trp(5-F)]DHYAC-NH2; linker 1-10 via mXylylene), the Ki [2] was > 48000 nM.
For CN1C(=O)[C@@H]2CCCN2C(=O)[C@H](Cc2ccc(O)cc2)NC(=O)[C@H](Cc2cnc[nH]2)NC(=O)[C@H](CC(=O)O)NC(=O)[C@H](Cc2c[nH]c3ccc(F)cc23)NC(=O)[C@H](Cc2c[nH]c3ccc(F)cc23)NC(=O)CNC(=O)[C@H](CCCCN)NC(=O)CCSCc2cccc(c2)CSC[C@H]1C(N)=O ([Mpa]KG[Trp(5-F)][Trp(5-F)]DHYP[NMeC]-NH2; linker 1-10 via mXylylene), the Ki [2] was > 48000 nM.
Work on NCCCC[C@@H]1NC(=O)CCSCc2cccc(c2)CSC[C@@H](C(N)=O)NC(=O)[C@@H]2CCN2C(=O)[C@H](Cc2ccc(O)cc2)NC(=O)[C@H](Cc2cnc[nH]2)NC(=O)[C@H](CC(=O)O)NC(=O)[C@H](Cc2c[nH]c3ccc(F)cc23)NC(=O)[C@H](Cc2c[nH]c3ccc(F)cc23)NC(=O)CNC1=O ([Mpa]KG[Trp(5-F)][Trp(5-F)]DHY[Aze]C-NH2; linker 1-10 via mXylylene) yielded a Ki [2] of 67.5 nM.
In the case of NCCCC[C@@H]1NC(=O)CCSCc2cccc(c2)CSC[C@@H](C(N)=O)NC(=O)[C@@H]2CCCCN2C(=O)[C@H](Cc2ccc(O)cc2)NC(=O)[C@H](Cc2cnc[nH]2)NC(=O)[C@H](CC(=O)O)NC(=O)[C@H](Cc2c[nH]c3ccc(F)cc23)NC(=O)[C@H](Cc2c[nH]c3ccc(F)cc23)NC(=O)CNC1=O ([Mpa]KG[Trp(5-F)][Trp(5-F)]DHY[Pip]C-NH2; linker 1-10 via mXylylene), the Ki [2] is reported as 969 nM.
With CN1CC(=O)N[C@H](C(N)=O)CSCc2cccc(c2)CSCCC(=O)N[C@@H](CCCCN)C(=O)NCC(=O)N[C@@H](Cc2c[nH]c3ccc(F)cc23)C(=O)N[C@@H](Cc2c[nH]c3ccc(F)cc23)C(=O)N[C@@H](CC(=O)O)C(=O)N[C@@H](Cc2cnc[nH]2)C(=O)N[C@@H](Cc2ccc(O)cc2)C1=O ([Mpa]KG[Trp(5-F)][Trp(5-F)]DHY[Sar]C-NH2; linker 1-10 via mXylylene) the Ki [2] was 10700 nM.
In the case of CN1C(=O)[C@H](Cc2cnc[nH]2)NC(=O)[C@H](CC(=O)O)NC(=O)[C@H](Cc2c[nH]c3ccc(F)cc23)NC(=O)[C@H](Cc2c[nH]c3ccc(F)cc23)NC(=O)CNC(=O)[C@H](CCCCN)NC(=O)CCSCc2cccc(c2)CSC[C@@H](C(N)=O)NC(=O)[C@@H]2CCCN2C(=O)[C@@H]1Cc1ccc(O)cc1 ([Mpa]KG[Trp(5-F)][Trp(5-F)]DH[NMeY]PC-NH2; linker 1-10 via mXylylene), the Ki [2] is reported as 112 nM.
For CN1C(=O)[C@H](CC(=O)O)NC(=O)[C@H](Cc2c[nH]c3ccc(F)cc23)NC(=O)[C@H](Cc2c[nH]c3ccc(F)cc23)NC(=O)CNC(=O)[C@H](CCCCN)NC(=O)CCSCc2cccc(c2)CSC[C@@H](C(N)=O)NC(=O)[C@@H]2CCCN2C(=O)[C@H](Cc2ccc(O)cc2)NC(=O)[C@@H]1Cc1cnc[nH]1 ([Mpa]KG[Trp(5-F)][Trp(5-F)]D[NMeH]YPC-NH2; linker 1-10 via mXylylene), the Ki [2] was > 48000 nM.
With C[C@@H]1NC(=O)[C@@H]2CCCN2C(=O)[C@H](Cc2c[nH]c3ccc(F)cc23)NC(=O)[C@H](Cc2c[nH]c3ccc(F)cc23)NC(=O)CNC(=O)[C@H](CCCCN)NC(=O)CCSCc2cccc(c2)CSC[C@@H](C(N)=O)NC(=O)[C@]2(C)CCCN2C(=O)[C@H](Cc2ccc(O)cc2)NC1=O ([Mpa]KG[Trp(5-F)][Trp(5-F)]PAY[αMeP]C-NH2; linker 1-10 via mXylylene) the Ki [2] was 88.3 nM.
For CN1C(=O)[C@H](Cc2c[nH]c3ccc(F)cc23)NC(=O)[C@H](Cc2c[nH]c3ccc(F)cc23)NC(=O)CNC(=O)[C@H](CCCCN)NC(=O)CCSCc2cccc(c2)CSC[C@@H](C(N)=O)NC(=O)[C@@H]2CCCN2C(=O)[C@H](Cc2ccc(O)cc2)NC(=O)[C@H](Cc2cnc[nH]2)NC(=O)[C@@H]1CC(=O)O ([Mpa]KG[Trp(5-F)][Trp(5-F)][NMeD]HYPC-NH2; linker 1-10 via mXylylene), the Ki [2] was 12900 nM.
Compound CC1(c2cccc3ccccc23)NC(=O)CNC(=O)[C@H](CCCCN)NC(=O)CCSCc2cccc(c2)CSC[C@@H](C(N)=O)NC(=O)[C@@H]2CCCN2C(=O)[C@H](Cc2ccc(O)cc2)NC(=O)[C@H](Cc2cnc[nH]2)NC(=O)[C@H](CC(=O)O)NC(=O)[C@H](Cc2c[nH]c3ccc(F)cc23)NC1=O (some centres not stated) ([Mpa]KG[X4][Trp(5-F)]DHYPC-NH2; linker 1-10 via mXylylene) has a Ki [2] of 63 nM.
With NCCCC[C@@H]1NC(=O)CCSCc2cccc(c2)CSC[C@@H](C(N)=O)NC(=O)[C@@H]2CCCN2C(=O)[C@H](Cc2ccc(O)cc2)NC(=O)[C@H](Cc2cnc[nH]2)NC(=O)[C@H](CC(=O)O)NC(=O)[C@H](Cc2c[nH]c3ccc(F)cc23)NC(=O)C(CCc2ccccc2)NC(=O)CNC1=O (some centres not stated) ([Mpa]KG[ξhPhe][Trp(5-F)]DHYPC-NH2; linker 1-10 via mXylylene) the Ki [2] was 2210 nM.
With CN1CC(=O)N[C@@H](Cc2c[nH]c3ccc(F)cc23)C(=O)N[C@@H](Cc2c[nH]c3ccc(F)cc23)C(=O)N[C@@H](CC(=O)O)C(=O)N[C@@H](Cc2cnc[nH]2)C(=O)N[C@@H](Cc2ccc(O)cc2)C(=O)N2CCC[C@H]2C(=O)N[C@H](C(N)=O)CSCc2cccc(c2)CSCCC(=O)N[C@@H](CCCCN)C1=O ([Mpa]K[Sar][Trp(5-F)][Trp(5-F)]DHYPC-NH2; linker 1-10 via mXylylene) the Ki [2] was 4090 nM.
CN1C(=O)CCSCc2cccc(c2)CSC[C@@H](C(N)=O)NC(=O)[C@@H]2CCCN2C(=O)[C@H](Cc2ccc(O)cc2)NC(=O)[C@H](Cc2cnc[nH]2)NC(=O)[C@H](CC(=O)O)NC(=O)[C@H](Cc2c[nH]c3ccc(F)cc23)NC(=O)[C@H](Cc2c[nH]c3ccc(F)cc23)NC(=O)CNC(=O)[C@@H]1CCCCN ([Mpa][NMeK]G[Trp(5-F)][Trp(5-F)]DHYPC-NH2; linker 1-10 via mXylylene) gave a Ki [2] of 342 nM.
NCCCC[C@@H]1NC(=O)CCSCc2cccc(c2)CSCCNC(=O)[C@@H]2CCCN2C(=O)[C@H](Cc2ccc(O)cc2)NC(=O)[C@H](Cc2c[nH]cn2)NC(=O)[C@H](CC(=O)O)NC(=O)[C@H](Cc2c[nH]c3ccc(F)cc23)NC(=O)[C@H](Cc2c[nH]c3ccc(F)cc23)NC(=O)CNC1=O (cyclo(DHYP[X1]KG[Trp(5-F)][Trp(5-F)])) gave a Ki [2] of 252 nM.
